From patent publication US11617735B2, “Purified forms of rofecoxib, methods of manufacture and use” (Tremeau Pharmaceuticals, Inc., priority 2018, dated 2023)

What was measured:
[1] = Stability of rofecoxib drug substance at 40° C./75% RH; assay type: physicochemical; details: Lot 16P3140F851
Procedure: (§1) Stability data for rofecoxib drug substance (Lot 16P3140F851) are provided in Tables 6A-B. If an individual impurity is ≥0.05% area, the result is reported to the nearest 0.01%. If an individual impurity is <0.02% (LOD), the result is reported as “not detected” (ND). If an individual impurity is <0.05% area but ≥0.02% area, the result is recorded as <0.05% area.

[2] = Stability of rofecoxib drug substance at 25° C./60% RH; assay type: physicochemical; details: Lot 16P3140F851
Procedure: as §1

[3] = RXB-Hydroxy formation from rofecoxib in DMSO with Na2SO3 under air (UHPLC); assay type: physicochemical; details: 5.5V DMSO
Procedure: Trials were performed to check the effect of both temperature and sodium sulfite on the 4-[4-(methylsulphonyl)phenyl]-3-phenyl-5-hydroxyfuran-2-one rate. Pure rofecoxib (RXB-201) (F851) was solubilized in 5.5V DMSO. on which Na2SO3 was added. Three amounts of Na2SO3 were tested: • 0%: rofecoxib (RXB-201) post filtration • 0.5%: ashes result obtained on pilot batch (crude rofecoxib (RXB-201) F801) • 1.5%: ashes result obtained on APG P052-110 batch
Samples were subjected to 2 different temperatures under air atmosphere: • 40° C.: current heating temperature for polishing filtration • 60° C.: possible future temperature for polishing filtration if DMSO volumes are reduced for better productivity.

[4] = Stability of isolated crude rofecoxib towards hydrogen peroxide; assay type: physicochemical; details: crude unwashed, stored at room temperature for 17 days (CHG P059-104)
Procedure: Several verifications were performed to confirm the feasibility of hydrogen peroxide removal: • No corrosion of Stainless steel 316L in contact with crude rofecoxib (RXB-201) mother liquors (enriched in excess hydrogen peroxide) after 10 days at 20° C. […] Crude washings seem to be efficient enough to remove peroxide traces in cake washings. • Stability of isolated crude rofecoxib (RXB-201) towards hydrogen peroxide is very satisfying. Crude unwashed rofecoxib (RXB-201) was stored at room temperature for 17 days. No evolution of UHPLC profile was observed (CHG P059-104).

[5] = tested on: Salmonella typhimurium (TA98, TA100, TA1535, TA97a) and E. coli (WP2, WP2uvrA, WP2 uvrA pKM101); details: with and without S9, up to 6000 μg/plate; cited from earlier work
[6] = tested on: Chinese hamster lung cells; details: all concentrations tested, with and without S-9; cited from earlier work
CHO cells = details: 25 to 125 μM with S-9 or 25 to 100 μM without S-9; cited from earlier work
mice = details: dose levels up to 60 mg/kg; cited from earlier work
rats = details: dose levels up to 8 mg/kg; cited from earlier work

CS(=O)(=O)c1ccc(C2=C(c3ccccc3)C(=O)OC2)cc1 [Rofecoxib, 4-[4-(methylsulfonyl)phenyl]-3-phenyl-2(5H)-furanone]
Appearance ([1]; 1 Month): Off-white
Assay by HPLC ([1]; 1 Month): 99.6 w/w
Impurities by HPLC: RRT ~ 0.5 ([1]; 1 Month): <0.05 % area
Impurities by HPLC: RXB-furanone ([1]; 1 Month): 0.08 % area
Impurities by HPLC: Total Impurities ([1]; 1 Month): 0.11 % area
Water Content by Karl Fischer ([1]; 1 Month): 0.07%
Appearance ([1]; 3 Month): White
Assay by HPLC ([1]; 3 Month): 100.5 w/w
Impurities by HPLC: RRT ~ 0.5 ([1]; 3 Month): <0.05 % area
Impurities by HPLC: RXB-furanone ([1]; 3 Month): 0.08 % area
Impurities by HPLC: Total Impurities ([1]; 3 Month): 0.12 % area
Water Content by Karl Fischer ([1]; 3 Month): 0.09%
Appearance ([1]; Initial): Off-white
Assay by HPLC ([1]; Initial): 99.8 w/w
Impurities by HPLC: RRT ~ 0.5 ([1]; Initial): <0.05 % area
Impurities by HPLC: RXB-furanone ([1]; Initial): 0.08 % area
Impurities by HPLC: Total Impurities ([1]; Initial): 0.11 % area
Polymorphic form by XRPD ([1]; Initial): Form A
Water Content by Karl Fischer ([1]; Initial): 0.12%
Appearance ([2]; 3 Month): White
Assay by HPLC ([2]; 3 Month): 100.4 % w/w
Impurities by HPLC: RRT ~ 0.5 ([2]; 3 Month): <0.05 % area
Impurities by HPLC: RXB-furanone ([2]; 3 Month): 0.08 % area
Impurities by HPLC: Total Impurities ([2]; 3 Month): 0.11 % area
Water Content by Karl Fischer ([2]; 3 Month): 0.08%
Appearance ([2]; Initial): Off-white
Assay by HPLC ([2]; Initial): 99.8 % w/w
Impurities by HPLC: RRT ~ 0.5 ([2]; Initial): <0.05 % area
Impurities by HPLC: RXB-furanone ([2]; Initial): 0.08 % area
Impurities by HPLC: Total Impurities ([2]; Initial): 0.11 % area
Polymorphic form by XRPD ([2]; Initial): Form A
Water Content by Karl Fischer ([2]; Initial): 0.12%
RXB-Hydroxy (UPLC) ([3]; 0% Na2SO3 (residue on ignition), IPC1 (3 h), 40° C.): 0.08 % a/a
RXB-Hydroxy (UPLC) ([3]; 0% Na2SO3 (residue on ignition), IPC1 (3 h), 60° C.): 0.16 % a/a
RXB-Hydroxy (UPLC) ([3]; 0% Na2SO3 (residue on ignition), IPC2 (6 h), 40° C.): 0.14 % a/a
RXB-Hydroxy (UPLC) ([3]; 0% Na2SO3 (residue on ignition), IPC2 (6 h), 60° C.): 0.17 % a/a
RXB-Hydroxy (UPLC) ([3]; 0.5% Na2SO3 (residue on ignition), IPC1 (3 h), 40° C.): 0.30 % a/a
RXB-Hydroxy (UPLC) ([3]; 0.5% Na2SO3 (residue on ignition), IPC1 (3 h), 60° C.): 0.35 % a/a
RXB-Hydroxy (UPLC) ([3]; 0.5% Na2SO3 (residue on ignition), IPC2 (6 h), 40° C.): 0.45 % a/a
RXB-Hydroxy (UPLC) ([3]; 0.5% Na2SO3 (residue on ignition), IPC2 (6 h), 60° C.): 0.52 % a/a
RXB-Hydroxy (UPLC) ([3]; 1.5% Na2SO3 (residue on ignition), IPC1 (3 h), 40° C.): 0.38 % a/a
RXB-Hydroxy (UPLC) ([3]; 1.5% Na2SO3 (residue on ignition), IPC1 (3 h), 60° C.): 0.67 % a/a
RXB-Hydroxy (UPLC) ([3]; 1.5% Na2SO3 (residue on ignition), IPC2 (6 h), 40° C.): 0.60 % a/a
RXB-Hydroxy (UPLC) ([3]; 1.5% Na2SO3 (residue on ignition), IPC2 (6 h), 60° C.): 0.73 % a/a
Evolution of UHPLC profile [4]: No evolution
Mutagenicity [5]: negative
Mutations in Chinese hamster lung cells [6]: negative
Percent of aberrant cells (CHO cells): no significant increases
Carcinogenicity (mice): not carcinogenic
Carcinogenicity (rats): not carcinogenic
